In US6060046A, “Antifouling compositions” (Unisearch Limited, priority 1994, dated 2000):

Experiments:
[1] = tested on: cyprids of the cosmopolitan fouling barnacle Balanus amphitrite; assay: Inhibition of settlement of barnacle cyprid larvae, metabolites dissolved in water; format: in vivo; conditions: 24 hr, based on FIGS. 2 and 3
Description: Settlement assays were carried out using cyprids of the cosmopolitan fouling barnacle Balanus amphitrite. The methods used were similar to those used previously (Rittschof et al, 1994, Willemson 1994). Adult brood stock were maintained under controlled light (15 hr light: 9 hr dark) and temperature (28° C.) conditions and fed larvae of the brine shrimp Artemia salina and the diatom Skeletonema costatum. Recently spawned nauplii of B. amphitrite were collected and reared on Skeletonema costatum under the same conditions as adult stocks until reaching cyprid stage after four to five days. Cyprid larvae were subsequently filtered from the culture and maintained in filtered seawater at 5° C. for five days prior to use in settlement assays.
Assays used purified metabolites at concentrations ranging from 100 μg to 0.1 ng per millilitre. […]
Tests were conducted by adding 45-65 cyprids to petri-dishes (47 mm) containing five mls of either test solution, filtered seawater control, or DMSO control. […] The dishes were then rinsed and the percent settlement of cyprids was determined by counting settled and non settled larvae.
The effects of Delisea pulchra metabolites on the settlement of barnacle cyprid larvae, the growth of bacteria and the settlement and germination of algal spores were analysed in two ways. […]

marine bacterium SW8 = assay: Inhibition of bacterial growth, marine isolate SW8; format: cell-based; conditions: c = control
Description: Assays to determine the antibacterial effect of Delisea metabolites used the marine isolate SW8 (Neu et al., 1991). […] Purified metabolites 1-4 were dissolved in ethyl acetate (10 mg/ml-10 μg/ml) and were added in volumes of 20 μl to sterilised McCartney bottles containing 19 mls of filter sterilised artificial seawater (ASW) medium supplemented with a trace vitamin and mineral solution (Schneider et al., 1994). Two reference compounds for antibacterial activity, the antibiotic gentamicin (Sigma)and a saturated copper (II) oxide solution, were also used in these tests. Following addition of metabolites, antibiotics or copper, the media was inoculated with SW8. The inoculum for the assay was taken from a continuous culture fermenter operating at a cell density of 10^7 cells/ml. The final concentration of metabolites and antibiotic tested ranged from 10 μg/ml to 10 ng/ml. Control bottles with media only, and media with 20 μl EtOAc added, were inoculated with SW8 and run concurrently with each experiment.
After mixing, 200 μl from each bottle was aseptically transferred to a well in a Nunc Tissue Culture plate (96 well). Plates were incubated aerobically at 30° C. with shaking. Growth was monitored by optical density (600 nm) every hour for 12 hours after which growth was monitored every four hours for a further 18 hours.
The effects of Delisea pulchra metabolites on the settlement of barnacle cyprid larvae, the growth of bacteria and the settlement and germination of algal spores were analysed in two ways. Firstly, we used Analysis of Variance (ANOVA) followed by Tukey's multiple comparison tests to determine which compounds, at which concentrations, had statistically significant effects on the test organisms. Analyses were done using the Statview II statistical package. These procedures enable us to determine the minimum concentration of a compound necessary to have some significant effect, and to look in a detailed way at variation in the effects of different compounds.

Compound	EC50 + 95% conf. int. (50% settlement inhibition) [1]	Compounds in order of increasing activity (growth inhibition) (marine bacterium SW8; 4 hours, 10 ng/mL)	Compounds in order of increasing activity (growth inhibition) (marine bacterium SW8; 4 hours, 100 ng/mL)	Compounds in order of increasing activity (growth inhibition) (marine bacterium SW8; 4 hours, 1.0 μg/mL)	Compounds in order of increasing activity (growth inhibition) (marine bacterium SW8; 4 hours, 10 μg/mL)	Compounds in order of increasing activity (growth inhibition) (marine bacterium SW8; 11.5 hours, 10 ng/mL)	Compounds in order of increasing activity (growth inhibition) (marine bacterium SW8; 11.5 hours, 100 ng/mL)	Compounds in order of increasing activity (growth inhibition) (marine bacterium SW8; 11.5 hours, 1.0 μg/mL)	Compounds in order of increasing activity (growth inhibition) (marine bacterium SW8; 11.5 hours, 10 μg/mL)	Compounds in order of increasing activity (growth inhibition) (marine bacterium SW8; third panel, time not given, 10 ng/mL)	Compounds in order of increasing activity (growth inhibition) (marine bacterium SW8; third panel, time not given, 100 ng/mL)	Compounds in order of increasing activity (growth inhibition) (marine bacterium SW8; third panel, time not given, 1.0 μg/mL)	Compounds in order of increasing activity (growth inhibition) (marine bacterium SW8; third panel, time not given, 10 μg/mL)
O=S(=O)([O-])[O-].[Cu+2] [CuSO4]	0.40(0.25-0.77) μg/ml	–	–	–	–	–	–	–	–	–	–	–	–
gentamicin	–	gent c 4 2 1 3	gent 4 c 2 3 1	c gent 2 1 4 3	c 1 gent 2 3 4	gent c 2 4 1 3	gent 4 2 c 1 3	c gent 1 2 3 4	c 1 2 gent 3 4	gent 4 1 c 3 2	gent 4 3 2 c 1	2 c 1 3 4 gent	c 1 2 gent 3 4
